Results reported in patent publication US20220000872A1, “METHOD OF ENHANCING IMMUNE-BASED THERAPY” (OncoTracker, Inc., priority 2018, published 2022).
Entries after “also recorded” stand apart in the source; their conditions may differ.

What was measured:
B7-H3 gene expression = B7-H3 gene expression (qPCR) in MM BMMCs, U266 cells and THP-1 monocytes; type: cell-based, human; details: RUX 1 μM
Method: We further examined BMMCs from two MM patients (#s 2188 and 2935) treated with RUX (1 μM) for 24 hours. RUX reduced B7-H3 gene expression as measured using qPCR in BMMCs (FIG. 7B). We also analyzed BMMCs co-cultured with stromal cells. B7-H3 gene expression was increased 16-fold in BMMCs after these cells were co-cultured with stromal cells. […] We further determined the effect of RUX (1 μM) on gene expression of B7-H3 in the MM cell line U266 co-cultured with THP-1 monocytes (T) after 48 hours. RUX at 1 μM reduced B7-H3 expression in both U266 MM cells and THP-1 monocytes, cultured alone or co-cultured, compared to cell cultures not treated with RUX (FIG. 7D).

multiple myeloma = details: Phase 1 clinical trial NCT00639002; cited from earlier work
[1] = tested on: PD-L1 gene and protein expression; assay: PD-L1 gene and protein expression in MM tumor cells alone or co-cultured with stromal cells (Example 11); type: cell-based, human; details: concentration dependent pattern
Method: BM mononuclear cells (MCs) and serum were collected from MM patients and healthy subjects after obtaining IRB approval. Single-cell suspensions were prepared from human MM LAGκ-1A xenografts which had been grown in the mice. The cells were cultured and treated with or without RUX and then were determined by qPCR, flow cytometric analysis, ELISA, and western blot.
We further investigated the effects of RUX on PD-L1 and PD-L2 expression in primary and stromal cells from MM patients' BM samples in vitro. […] We then determined whether RUX can augment the anti-MM effects of T-cells in vitro. […] To evaluate the efficacy of drugs in vivo, severe combined immune deficient mice implanted with the human MM xenograft LAGκ-2 were treated with RUX (30 mg/kg).

Compound: N#CC[C@H](C1CCCC1)n1cc(-c2ncnc3[nH]ccc23)cn1 [RUX, ruxolitinib]
- B7-H3 gene expression in BMMCs (B7-H3 gene expression; BMMCs from two MM patients (#2188, #2935), 24 hours, qPCR): reduced; also recorded: down-regulates
- B7-H3 expression in BMMCs co-cultured with stromal cells (B7-H3 gene expression): markedly reduced; also recorded: decreases
- B7-H3 expression in U266 MM cells (B7-H3 gene expression; cultured alone or co-cultured with THP-1, 48 hours): reduces
- B7-H3 expression in THP-1 monocytes (B7-H3 gene expression; cultured alone or co-cultured with U266, 48 hours): reduced
- efficacy of monotherapy for multiple myeloma (multiple myeloma): ineffective
- PD-L1 gene and protein expression in MM tumor cells [1]: markedly reduced
